Assays:
Type in all cases: in vivo
[1] = tested on: MCAO rat model of ischemic stroke; assay: Forelimb placement test after tMCAO; settings: Example 1, continuous s.c. Alzet pump
Method: (§1) For the purposes of this example, Transient middle cerebral artery occlusion (tMCAO) procedure Day is defined as “Day 1” in this study. On the day of surgery anesthesia were induced with 4% isoflurane in a mixture of 70% N2O and 30% O2 and maintained with 1.5-2% isoflurane.
(§2) The tMCAO procedures were performed according to the method described R. Schmid-Elsaesser et al. Briefly, the right CCA (Common Carotid Artery) was exposed through a midline neck incision and carefully dissected free from surrounding nerves and fascia—from its bifurcation to the base of the skull. The occipital artery branches of the ECA (External Carotid Artery) were then isolated, and these branches were dissected and coagulated. The ECA was dissected further distally and coagulated along with the terminal lingual and maxillary artery branches, which was then divided. The ICA (Internal Carotid Artery) was isolated and carefully separated from the adjacent vagus nerve, and the pterygopalatine artery was ligated close to its origin with a 5-0 nylon suture (SMI, Belgium). Next, a 4-0 silk suture was tied loosely around the mobilized ECA stump, and a 4 cm length of 4-0 monofilament nylon suture (the tip of the suture was blunted by using a flame, and the suture was coated with polylysine, prior to insertion) was inserted through the proximal ECA into the ICA and thence into the circle of Willis, effectively occluding the MCA. The surgical wound was closed and the animals were returned to their cages to recover from anesthesia. One hour and a half after occlusion rats were re-anesthetized, the monofilament was withdrawn to allow reperfusion, the surgical wound was closed and rats were returned to their cages.
(§3) Animals were subjected to a modified Modified Neurological Rating Scale (mNRS) at 24 hours post reperfusion. Only animals with an overall score of ≧10 are included in this study. Animals were allocated into the test groups, according to the mNRS results on day 2, in order to have similar distribution of rats performance between groups. Started on day 2, 24 hours post-surgery, each animal is implanted subcutaneously with osmotic Alzet pump and is treated by continuous PanCyte administration (2.5 mg/ml or 25 mg/ml in PBS; SEQ ID NO:22).
The limb placing tests were divided into both forelimb and hindlimb tests. For the forelimb-placing test, the examiner held the rat close to a tabletop and scored the rat's ability to place the forelimb on the tabletop in response to whisker, visual, tactile, or proprioceptive stimulation. Similarly, for the hindlimb placing test, the examiner assessed the rat's ability to place the hindlimb on the tabletop in response to tactile and proprioceptive stimulation. […]

[2] = tested on: MCAO rat model of ischemic stroke; assay: Stepping test (forelimb akinesia) after tMCAO; settings: for stepping test performance vs control: day 15
Method: as §1, §2, §3
Animals were tested for forelimb akinesia in a stepping test. The animal was held with its hind limbs fixed with one hand and the forelimb not monitored with the other, while the unrestrained fore-paw touches a table. The number of adjusting steps were counted while the animal was moved sideways along the table surface (85 cm in approximately five seconds), in the forehand & backhand direction for both forelimbs. […] Four groups were analyzed in this test, a control group (receiving only PBS for 49 days), a group receiving 50 μg/kg PanCyte for 49 days, a group receiving 500 μg/kg PanCyte for 49 days, and a group receiving 50 μg/kg PanCyte for 14 days.
Animals were subjected to a modified Modified Neurological Rating Scale (mNRS) at 24 hours post reperfusion. Only animals with an overall score of ≧10 were included in this study. Animals were allocated into the test groups, according to the mNRS results on day 2, in order to have similar distribution of rats performance between groups. Starting on day 2, 24 hours post-surgery, animals in groups 4, 5 and 7 were implanted subcutaneously with an osmotic Alzet pump and treated with either 500 μg/kg TXA127 (SEQ ID NO:1), 500 μg/kg PanCyte (SEQ ID NO:22), or 50 μg/kg Linear PanCyte (SEQ ID NO:6). Animals in groups 2, 3 and 6 received 500 μg/kg or 1,000 μg/kg TXA127 or 500 μg/kg PanCyte, administered subcutaneously via daily injection. Animals in group 1 were treated with a daily subcutaneous injection of a PBS (vehicle).
Animals were tested for forelimb akinesia in a stepping test (ST). The animal was held with its hind limbs fixed with one hand and the forelimb not to be monitored with the other, while the unrestrained fore-paw touches the table. […]

[3] = tested on: MCAO rat model of ischemic stroke; assay: Modified Neurological Rating Scale (mNRS) evaluation after tMCAO; settings: Example 1, continuous s.c. Alzet pump
Method: as §1
as §2, with “cages. […]” for “cages.”
The Modified Neurological Rating Scale (mNRS) was administered by an individual who was unaware of the drug/dose given (blind test). […] Four groups were analyzed in this test, a control group (receiving only PBS for 49 days), a group receiving 50 μg/kg PanCyte for 49 days, a group receiving 500 μg/kg PanCyte for 49 days, and a group receiving 50 μg/kg PanCyte for 14 days. […]

For CCC(C)C1NC(=O)C(NC(=O)C(NC(=O)C(CCCNC(=N)N)NC(=O)C(N)CC(=O)O)C(C)C)CSCC(C(=O)O)NC(=O)C(Cc2c[nH]cn2)NC1=O (centres unmarked) [PanCyte, Asp^1-Arg^2-Val^3-Ser^4-Ile^5-His^6-Cys^7 (SEQ ID NO: 22)], which “forelimb placing test performance vs control” value ([1]; 50 μg/kg for 14 days, from day 15) is on record?
Its value is “performed significantly better than control animals beginning on day 15”.

What about the “forelimb placing test performance vs control” value ([1]; each PanCyte group (50 μg/kg 49 days, 500 μg/kg 49 days, 50 μg/kg 14 days), day 29, continued to day 36) of the same compound?
Its value is “increased performance on this test by day 29”.

What about the “forelimb placing test performance vs control” value ([1]; other treatment groups (50 μg/kg 49 days, 500 μg/kg 49 days), trending before day 29) of the same compound?
Its value is “did not reach statistical significance until day 29”.

And the “stepping test performance vs control” value ([2]; Example 1, 50 μg/kg for 14 days, continuous s.c. Alzet pump, trending toward improvement)?
Its value is “did not reach statistically significant levels”.

And the “stepping test performance vs control” value ([2]; Example 1, 50 μg/kg for 49 days, continuous s.c. Alzet pump)?
The value was “performed significantly better than controls”.

What about the “stepping test performance vs control” value ([2]; Example 1, 500 μg/kg for 49 days, continuous s.c. Alzet pump, trending toward improvement) of the same compound?
Its value is “did not reach statistically significant levels”.

What about the “stepping test performance (number of adjusting steps) vs control” value ([2]; Example 1, each PanCyte group (50 μg/kg 49 days, 500 μg/kg 49 days, 50 μg/kg 14 days), continuous s.c. Alzet pump, day 22, continued through day 36) of the same compound?
Its value is “increased performance of rats by day 22”.

And the “stepping test performance vs vehicle control” value ([2]; Example 2, all experimental conditions (s.c. daily injection or Alzet pump, 28 days), by Day 21 post-surgery)?
Its value is “significantly improved the performance of treated rats”.

And the “mNRS performance vs control” value ([3]; 50 μg/kg for 49 days, days 8 and 15)?
Its value is “statistically improved performance on days 8 and 15”.

And the “mNRS performance vs control” value ([3]; 500 μg/kg for 49 days, day 22)?
Its value is “statistically improved performance on day 22”.

And the “mNRS performance vs control” value ([3]; each PanCyte group (50 μg/kg 49 days, 500 μg/kg 49 days, 50 μg/kg 14 days), day 29 and 36)?
Its value is “improved performance on the test by day 29”.

— US9511055B2, “Angiotensin in treating brain conditions” (TARIX PHARMACEUTICALS LTD., priority 2012, dated 2016)
